Data taken from paper PMC5547389, “Structure-activity relationships and molecular docking studies of chromene and chromene based azo chromophores: A novel series of potent antimicrobial and anticancer agents” (EXCLI Journal, 2017).
Converted amounts (≈) assume the structure as drawn.

What was measured:
[1] = tested on: Human colon carcinoma (HCT-116); test: Cytotoxic screening; type: cell-based; conditions: Homo sapiens, HCT-116; read-out: IC50 HCT-116
Experimental: (§1) Human colon carcinoma (HCT-116), human hepatocellular carcinoma (HEPG-2), adenocarcinomic human alveolar basal epithelial cell (A-549), and human breast adenocarcinoma (MCF-7) cell lines were obtained from the American Type Culture Collection (ATCC, Rockville, MD). The cells were grown on RPMI-1640 medium supplemented with 10 % inactivated fetal calf serum and 50 µg/ml gentamycin. The cells were maintained at 37 °C in a humidified atmosphere with 5 % CO2 and were subcultured two to three times a week. Potential cytotoxicity of the compounds was evaluated on tumor cells using the method of Gangadevi and Muthumary (2007[21]) (Klancnik et al., 2010[36]). The cells were grown as monolayers in growth RPMI-1640. The monolayers of 104 cells adhered at the bottom of the wells in a 96-well microtiter plate incubated for 24 h at 37 °C in a humidified incubator with 5 % CO2. The monolayers were then washed with sterile phosphate buffered saline (0.01 M pH 7.2) and simultaneously the cells were treated with 100 µL from different dilutions of tested sample in fresh maintenance medium and incubated at 37 °C. A control of untreated cells was made in the absence of tested sample. Positive controls containing doxorubicin were also tested as a reference drug for comparison. Six wells were used for each concentration of the test sample. Every 24 hours an observation under the inverted microscope was made. The number of the surviving cells was determined by staining the cells with crystal violet (Mosmann, 1983[42]; Gangadevi and Muthumary, 2007[21]) followed by cell lysing using 33 % glacial acetic acid and reading the absorbance at 590 nm using microplate reader (SunRise, TECAN, Inc, USA) after well mixing. The absorbance values from untreated cells were considered as 100 % proliferation. The number of viable cells was determined using microplate reader as previously mentioned before and the percentage of […] was calculated as [1-(ODt/ODc)] x 100 % where ODt is the mean optical density of wells treated with the tested sample and ODc is the mean optical density of untreated cells. The relation between surviving cells and drug concentration was plotted to get the survival curve of each tumor cell line after treatment with the specified compound. The 50 % inhibitory concentration (IC50), the concentration required to cause toxic effects in 50 % of intact cells, was estimated from graphic plots.
(§2) The in vitro cytotoxic activity was performed by MTT assay (Mosmann, 1983[42]; Alley et al., 1988[6]) against three human carcinoma cell lines: Human colon carcinoma (HCT-116), human breast adenocarcinoma (MCF-7), and human hepatocellular carcinoma (HEPG-2).

[2] = tested on: human breast adenocarcinoma (MCF-7); test: Cytotoxic screening; type: cell-based; conditions: Homo sapiens, MCF7; read-out: IC50 MCF-7
Experimental: as §1, §2

[3] = tested on: human hepatocellular carcinoma (HEPG-2); test: Cytotoxic screening; type: cell-based; conditions: HepG2, read-out: IC50 HepG-2
Experimental: as §1, §2

[4] = tested on: Aspergillus fumigatus (RCMB 02568); test: Well diffusion assay (inhibition zone); type: cell-based; conditions: RCMB02568, 5 mg/mL in DMSO, fungi, read-out: Inhibition Zone (IZ) diameter, A.F
Experimental: (§3) The microorganism inoculums were uniformly spread using sterile cotton swabs on a sterile Petri dish malt extract agar (for fungi) and nutrient agar (for bacteria). One hundred cubic millimeters of each sample was added to each well (10 mm-diameter holes were cut in the agar gel, 20 mm apart from one another). The systems were incubated for 24-48 h at 37 °C (for bacteria) and at 28 °C (for fungi). After incubation, the microorganism growth was observed. Inhibition zones of the bacterial and fungal growth were measured in millimeters. Tests were performed in triplicate (Cappuccino and Sherman, 1999[12]; Vanden Berghe and Vlientinck, 1991[62]).
(§4) All the newly synthesized compounds described in this report were screened for both antibacterial and antifungal activity via the reported agar diffusion well method (Vanden Berghe and Vlietinck, 1991[62]). The inhibition zones and minimum inhibitory concentrations (MIC) were determined by the serial dilution method (Cappuccino and Sherman, 1999[12]). The antimicrobial activity of the synthesized compounds was tested against a broad panel of microorganisms including two Gram-positive bacteria: Streptococcus pneumoniae (RCMB 010010) and Bacillus subtilis (RCMB 010067), two Gram-negative bacteria: Pseudomonas aeruginosa (RCMB 010043) and Escherichia coli (RCMB 010052), and four fungi: Aspergillus fumigatus (RCMB 02568), Syncephalastrum racemosum (RCMB 05922), Geotricum candidum (RCMB 05097), and Candida albicans (RCMB 05036). Ampicillin, ciprofloxacin, gentamicin and amphotericin B were used as positive control drugs (Atta-ur-Rahman and Thomsen, 2001[7]; Smania et al., 1999[57]). […] While in the case of Gm-ve bacteria, they had weak activity. In addition, certain strains of fungi were sensitive to tested compounds with an IZ range from 12-25 except Candida albicans.

[5] = tested on: Streptococcus pneumoniae (RCMB 010010); test: Well diffusion assay (inhibition zone); type: cell-based; conditions: RCMB010010, 5 mg/mL in DMSO, Gm+ve, read-out: Inhibition Zone (IZ) diameter, S.P
Experimental: as §3, §4

[6] = tested on: Escherichia coli (RCMB 010052); test: Well diffusion assay (inhibition zone); type: cell-based; conditions: RCMB010052, 5 mg/mL in DMSO, Gm-ve, read-out: Inhibition Zone (IZ) diameter, E.C
Experimental: as §3, §4

[7] = tested on: Syncephalastrum racemosum (RCMB 05922); test: Well diffusion assay (inhibition zone); type: cell-based; conditions: RCMB05922, 5 mg/mL in DMSO, fungi, read-out: Inhibition Zone (IZ) diameter, S.R
Experimental: as §3, §4

[8] = tested on: Bacillus subtilis (RCMB 010067); test: Well diffusion assay (inhibition zone); type: cell-based; conditions: RCMB010067, 5 mg/mL in DMSO, Gm+ve, read-out: Inhibition Zone (IZ) diameter, B.S
Experimental: as §3, §4

[9] = tested on: Geotricum candidum (RCMB 05097); test: Well diffusion assay (inhibition zone); type: cell-based; conditions: 5 mg/mL in DMSO; fungi; read-out: Inhibition Zone (IZ) diameter, G.C
Experimental: as §3, §4

[10] = tested on: Streptococcus pneumoniae (RCMB 010010); test: MIC by serial dilution method; type: cell-based; conditions: RCMB010010, Gm+ve, read-out: Minimum inhibitory concentration, MIC, S.P
Experimental: as §4

[11] = tested on: Bacillus subtilis (RCMB 010067); test: MIC by serial dilution method; type: cell-based; conditions: RCMB010067, Gm+ve, read-out: Minimum inhibitory concentration, MIC, B.S
Experimental: as §4

[12] = tested on: Pseudomonas aeruginosa (RCMB 010043); test: Well diffusion assay (inhibition zone); type: cell-based; conditions: RCMB010043, 5 mg/mL in DMSO, Gm-ve, read-out: Inhibition Zone (IZ) diameter, P.A
Experimental: as §3, §4

[13] = tested on: Pseudomonas aeruginosa (RCMB 010043); test: MIC by serial dilution method; type: cell-based; conditions: RCMB010043, Gm-ve, read-out: Minimum inhibitory concentration, MIC, P.A
Experimental: as §4

[14] = tested on: Escherichia coli (RCMB 010052); test: MIC by serial dilution method; type: cell-based; conditions: RCMB010052, Gm-ve, read-out: Minimum inhibitory concentration, MIC, E.C
Experimental: as §4

[15] = tested on: Geotricum candidum (RCMB 05097); test: MIC by serial dilution method; type: cell-based; conditions: fungi; read-out: Minimum inhibitory concentration, MIC, G.C
Experimental: as §4

[16] = tested on: Aspergillus fumigatus (RCMB 02568); test: MIC by serial dilution method; type: cell-based; conditions: RCMB02568, fungi, read-out: Minimum inhibitory concentration, MIC, A.F
Experimental: as §4

[17] = tested on: Syncephalastrum racemosum (RCMB 05922); test: MIC by serial dilution method; type: cell-based; conditions: RCMB05922, fungi, read-out: Minimum inhibitory concentration, MIC, S.R
Experimental: as §4

| SMILES | IC50 [1] [µg/mL] | IC50 [2] [µg/mL] | IC50 [3] [µg/mL] | zone of inhibition at 5000 µg/mL [4] [mm] | zone of inhibition at 5000 µg/mL [5] [mm] | zone of inhibition at 5000 µg/mL [6] [mm] | zone of inhibition at 5000 µg/mL [7] [mm] | zone of inhibition at 5000 µg/mL [8] [mm] | melting point [°C] | zone of inhibition at 5000 µg/mL [9] [mm] | MIC [10] [µg/mL] | MIC [11] [µg/mL] | zone of inhibition at 5000 µg/mL [12] [mm] | MIC [13] [µg/mL] | MIC [14] [µg/mL] | MIC [15] [µg/mL] | MIC [16] [µg/mL] | MIC [17] [µg/mL] |
| --- | --- | --- | --- | --- | --- | --- | --- | --- | --- | --- | --- | --- | --- | --- | --- | --- | --- | --- |
| N#CC1=C(N)Oc2cc(O)c(N=Nc3ccc([N+](=O)[O-])cc3)cc2C1c1ccc(F)cc1 (stereo not drawn) [13c, 2-Amino-4-(4-fluoro-phenyl)-7-hydroxy-6-(4-nitro-phenylazo)-4H-chromene-3-carbonitrile] | 12.2 (≈ 28.3 µM) | 10.8 (≈ 25 µM) | 10.4 (≈ 24.1 µM) | 13.6 | 14.6 | 9.4 | 10.4 | 14.3 | 254 |  |  |  |  |  |  |  |  |  |
| N#CC1=C(N)Oc2cc(O)c(N=Nc3ccc(S(=O)(=O)O)cc3)cc2C1c1ccccc1F (stereo not drawn) [13f, 4-[2-Amino-3-cyano-4-(2-fluoro-phenyl)-7-hydroxy-4H-chromen-6-ylazo]-benzenesulfonic acid] | 100 (≈ 214 µM) | 79.8 (≈ 171 µM) | 68.4 (≈ 147 µM) | 10.3 | 10.6 | 12.1 | 11.6 | 13.4 | 290 | 13.4 |  |  |  |  |  |  |  |  |
| Cc1ccc(N=Nc2cc3c(cc2O)OC(N)=C(C#N)C3c2ccc(F)cc2)cc1 (stereo not drawn) [13a, 2-Amino-4-(4-fluoro-phenyl)-7-hydroxy-6-p-tolylazo-4H-chromene-3-carbonitrile] |  |  |  | 20.4 | 19.6 | 14.4 | 17.3 | 23.7 | 203 | 21.4 |  |  |  |  |  |  |  |  |
| CCCCc1ccc(C2C(C#N)=C(N)Oc3cc(O)c(N=Nc4ccc(S(=O)(=O)O)cc4)cc32)cc1 (stereo not drawn) [13h, 4-[2-Amino-4-(4-butyl-phenyl)-3-cyano-7-hydroxy-4H-chromen-6-ylazo]-benzenesulfonic acid] | 88.6 (≈ 176 µM) | 44.6 (≈ 88.4 µM) | 40.4 (≈ 80.1 µM) | 12.1 | 15.3 | 13.9 | 13.6 | 16.3 | 275 | 15.8 |  |  |  |  |  |  |  |  |
| CC(C)(C)c1ccc(C2C(C#N)=C(N)Oc3c2ccc2c(N)cccc32)cc1 (stereo not drawn) [7a, 2,7-Diamino-4-(4-tert-butyl-phenyl)-4H-benzo[h]chromene-3-carbonitrile] | 14.3 (≈ 38.7 µM) | 17.5 (≈ 47.4 µM) | 11.9 (≈ 32.2 µM) | 15.4 | 16.1 | 13.8 | 14.1 | 16.9 | 210 | 15.8 |  |  |  |  |  |  |  |  |
| CC1(C)S[C@@H]2[C@H](NC(=O)[C@H](N)c3ccccc3)C(=O)N2[C@H]1C(=O)O [Ampicillin, reference compound] |  |  |  |  | 23.8 |  |  | 32.4 |  |  | 0.24 (≈ 0.687 µM) | 0.007 (≈ 0.02 µM) |  |  |  |  |  |  |
| N#CC1=C(N)Oc2c(ccc3c(N)cccc23)C1c1cccs1 (stereo not drawn) [7e, 2,7-Diamino-4-thiophen-2-yl-4H-benzo[h]chromene-3-carbonitrile] | 39.9 (≈ 125 µM) | 61.9 (≈ 194 µM) | 33.2 (≈ 104 µM) | 16.4 | 16.3 | 15.2 | 14.2 | 18.2 | 232 | 16.9 |  |  |  |  |  |  |  |  |
| O=C(O)c1cn(C2CC2)c2cc(N3CCNCC3)c(F)cc2c1=O [Ciprofloxacin, reference compound] |  |  |  |  |  | 25.3 |  |  |  |  |  |  | 22.3 | 0.99 (≈ 2.99 µM) | 0.49 (≈ 1.48 µM) |  |  |  |
| CNC(C)C1CCC(N)C(OC2C(N)CC(N)C(OC3OCC(C)(O)C(NC)C3O)C2O)O1 (stereo not drawn) [Gentamicin, reference compound] |  |  |  |  |  | 19.9 |  |  |  |  |  |  | 17.3 | 31.2 (≈ 65.4 µM) | 3.9 (≈ 8.17 µM) |  |  |  |
| O=[N+]([O-])c1ccc(N=Nc2ccc(O)cc2O)cc1 [12c, 4-(4-Nitro-phenylazo)-benzene-1,3-diol] | 30.2 (≈ 117 µM) | 24 (≈ 92.6 µM) | 21.2 (≈ 81.8 µM) | 16.4 | 17.2 | 13.5 | 14.2 | 18.6 |  | 17.9 | 31.2 (≈ 121 µM) | 7.81 (≈ 30.1 µM) |  |  | 125 (≈ 482 µM) | 15.6 (≈ 60.3 µM) | 62.5 (≈ 241 µM) | 125 (≈ 482 µM) |
| CC(C)(C)c1ccc(C2C(C#N)=C(N)Oc3cc(O)c(N=Nc4ccc(S(=O)(=O)O)cc4)cc32)cc1 (stereo not drawn) [13g, 4-[2-Amino-4-(4-tert-butyl-phenyl)-3-cyano-7-hydroxy-4H-chromen-6-ylazo]-benzenesulfonic acid] | 100 (≈ 198 µM) | 92.6 (≈ 184 µM) | 81.3 (≈ 161 µM) | 14.3 | 15.2 | 13.6 | 15.2 | 16.1 | 330 | 17.1 |  |  |  |  |  |  |  |  |
